In the oligonucleotide strings, read from the 5' end, every base follows the letter of its sugar. An asterisk marks phosphorothioate; unmarked linkages are phosphodiester. Other units and linkages are bracketed, terminal groups are in braces. A string of capitals states the bases alone. d = 2'-deoxy (DNA)
test system: human meltrin α RNA; assay: Suppression of human meltrin α expression by antisense compound in RD cell (real time PCR); format: cell-based; conditions: 50 nM; RD cell; corrected by GAPDH
Protocol: First, RD cell (ATCC) was suspended in DMEM containing 10% fetal bovine serum (FBS, SIGMA), and the suspension was inoculated in 6 well culture plate at 2.5×10^5 cells/well/2 mL. After incubating overnight at 37° C. in the presence of 5% CO2, the cells were washed twice with serum-free DMEM, and Opti-MEM medium (GIBCO) was added at 800 μL/well.
Gene transfection reagent Lipofectin (Invitrogen) was diluted with Opti-MEM to 20 μg/mL, and the dilution was allowed to stand at room temperature for 30 minutes. Next, the antisense oligodeoxynucleotide synthesized as described above was heated at 90° C. for 3 minutes, and after quenching on ice, diluted with Opti-MEM to a concentration 10 times higher than the final concentration. Equal amounts of the Lipofectin in Opti-MEM and the antisense oligo DNA in Opti-MEM were mixed, and the mixture was incubated at room temperature for 15 minutes and added to 6 well plate at 200 μL/well.
The culture was incubated at 37° C. for 4 hours in the presence of 5% CO2, and the culture supernatant containing the Lipofectin was removed. The cells were washed twice with serum-free DMEM, and after adding 1 mL/well of Opti-MEM and incubating for 18 hours at 37° C. in the presence of 5% CO2, the cells were subjected to the measurement of the level of expression of meltrin α RNA.
After the washing, RNA was isolated from the cell by using RNA isolation kit (RNeasy Micro Kit, QIAGEN) according to the protocol of the kit, and RNA concentration was determined by measuring absorbance at a wavelength of 260 nm with a spectrophotometer (Nano prop, LMS Co., Ltd.) (1OD=40 μg/mL). After the quantitation, the RNA was prepared to a concentration of 0.1 μg/μL by using DEPC-treated water.
0.35 μg of the isolated RNA, and 3.5 μL of 10× TaqMan buffer, 7.7 μL of 25 mM MgCl2, 7.0 μL of 2.5 mM each dNTP Mix, 1.75 μL of 50 μM Random Hexamers, 0.7 μL of 20 U/μL RNase inhibitor, and 0.9 μL of 50 U/μL MultiScribe Reverse Transcriptase (all purchased from Applied Biosystems) were mixed, and water was added to make up the total volume to 35 μL. This solution was maintained at 25° C. for 10 minutes, at 48° C. for 30 minutes, and at 95° C. for 5 minutes, and reverse transcription was conducted to synthesize cDNA.
A solution in total volume of 20 μL containing 10 μL of TaqMan Universal PCR Master Mix, 0.4 μL of 10 μM TaqMan MGB Probe (sequence 5′FAM-caccgaaggacaatccca-MGB-3′: Applied Biosystems), 0.1 μL of 50 μM Forward primer (sequence ggaagccgccagattcct) for detecting meltrin α, 0.1 μL of 50 μM Reverse primer (sequence […]) for detecting meltrin α (all purchased from Sigma-Genosys), 5 μL of the cDNA solution of (3), and 4.4 μL of water was prepared, and after maintaining the solution at 50° C. for 2 minutes and at 95° C. for 10 minutes, PCR was conducted by repeating 40 cycles of 95° C. for 15 seconds and 60° C. for 1 minute in ABI Prism 7000.
The amount of the human meltrin α RNA was measured by conducting real time PCR by using the plasmid containing the cDNA coding for the human meltrin α for the template to generate the standard curve, and calculating RNA copy number of the meltrin α in each sample. The level of expression of GAPDH was also determined by using a primer and probe set for real time PCR of human GAPDH (Pre-Developed TaqMan Assay Reagents Human GAPDH (20×) (Cat# 4310884E, Applied Biosystems).
The results of the real time PCR of the meltrin α was corrected by the level of expression of the GAPDH to calculate the suppression rate. […]

Substance | suppression rate of expression, 50 nM
H110: caagccctgggtccggcatg (dC*dA*dA*dG*dC*dC*dC*dT*dG*dG*dG*dT*dC*dC*dG*dG*dC*dA*dT*dG; antisense) | + (“+” when the suppression rate was at least 30%)

same assay, conditions: 200 nM; RD cell; corrected by GAPDH

Substance | suppression rate of expression, 200 nM
H076: tccaggctggtctccaagtc (dT*dC*dC*dA*dG*dG*dC*dT*dG*dG*dT*dC*dT*dC*dC*dA*dA*dG*dT*dC) | ++ (“++” when the suppression rate was at least 50%)
H077: ggcacacccccattcctttc (dG*dG*dC*dA*dC*dA*dC*dC*dC*dC*dC*dA*dT*dT*dC*dC*dT*dT*dT*dC) | + (“+” when the suppression rate was at least 30%)
H079: tggcccccgaaagactccct (dT*dG*dG*dC*dC*dC*dC*dC*dG*dA*dA*dA*dG*dA*dC*dT*dC*dC*dC*dT; antisense) | ++ (“++” when the suppression rate was at least 50%)
H080: caaatctgttcccacacttc (dC*dA*dA*dA*dT*dC*dT*dG*dT*dT*dC*dC*dC*dA*dC*dA*dC*dT*dT*dC; antisense) | + (“+” when the suppression rate was at least 30%)
H082: tcctctggctccccacagtc (dT*dC*dC*dT*dC*dT*dG*dG*dC*dT*dC*dC*dC*dC*dA*dC*dA*dG*dT*dC; antisense) | + (“+” when the suppression rate was at least 30%)
H084: cagggtacaggtggtggcat (dC*dA*dG*dG*dG*dT*dA*dC*dA*dG*dG*dT*dG*dG*dT*dG*dG*dC*dA*dT; antisense) | ++ (“++” when the suppression rate was at least 50%)
H085: gcgcacacagcgtccggctt (dG*dC*dG*dC*dA*dC*dA*dC*dA*dG*dC*dG*dT*dC*dC*dG*dG*dC*dT*dT; antisense) | + (“+” when the suppression rate was at least 30%)
H088: gagtccctgcacgctgttcc (dG*dA*dG*dT*dC*dC*dC*dT*dG*dC*dA*dC*dG*dC*dT*dG*dT*dT*dC*dC; antisense) | + (“+” when the suppression rate was at least 30%)
H089: ggaggtcacaggagttgctg (dG*dG*dA*dG*dG*dT*dC*dA*dC*dA*dG*dG*dA*dG*dT*dT*dG*dC*dT*dG; antisense) | + (“+” when the suppression rate was at least 30%)
H090: ggcccctgtgcagaactctg (dG*dG*dC*dC*dC*dC*dT*dG*dT*dG*dC*dA*dG*dA*dA*dC*dT*dC*dT*dG; antisense) | ++ (“++” when the suppression rate was at least 50%)
H091: ttggctgggcagtgagggct (dT*dT*dG*dG*dC*dT*dG*dG*dG*dC*dA*dG*dT*dG*dA*dG*dG*dG*dC*dT; antisense) | ++ (“++” when the suppression rate was at least 50%)
H092: gcccatcgtgcaggtacacg (dG*dC*dC*dC*dA*dT*dC*dG*dT*dG*dC*dA*dG*dG*dT*dA*dC*dA*dC*dG; antisense) | ++ (“++” when the suppression rate was at least 50%)
H093: gtccacatcctgacatgagt (dG*dT*dC*dC*dA*dC*dA*dT*dC*dC*dT*dG*dA*dC*dA*dT*dG*dA*dG*dT; antisense) | + (“+” when the suppression rate was at least 30%)
H094: atgccattgtagcagtagcc (dA*dT*dG*dC*dC*dA*dT*dT*dG*dT*dA*dG*dC*dA*dG*dT*dA*dG*dC*dC; antisense) | + (“+” when the suppression rate was at least 30%)
H096: tccccagagtgtgacacact (dT*dC*dC*dC*dC*dA*dG*dA*dG*dT*dG*dT*dG*dA*dC*dA*dC*dA*dC*dT; antisense) | + (“+” when the suppression rate was at least 30%)
H098: ctctctcaaagcagatccca (dC*dT*dC*dT*dC*dT*dC*dA*dA*dA*dG*dC*dA*dG*dA*dT*dC*dC*dC*dA; antisense) | + (“+” when the suppression rate was at least 30%)
H099: aggatcacctgcagaattga (dA*dG*dG*dA*dT*dC*dA*dC*dC*dT*dG*dC*dA*dG*dA*dA*dT*dT*dG*dA; antisense) | + (“+” when the suppression rate was at least 30%)
H100: actttgccacagttgccata (dA*dC*dT*dT*dT*dG*dC*dC*dA*dC*dA*dG*dT*dT*dG*dC*dC*dA*dT*dA; antisense) | + (“+” when the suppression rate was at least 30%)
H102: agcatctctcatctcgcatt (dA*dG*dC*dA*dT*dC*dT*dC*dT*dC*dA*dT*dC*dT*dC*dG*dC*dA*dT*dT; antisense) | + (“+” when the suppression rate was at least 30%)
H104: gccggctggcacctccttga (dG*dC*dC*dG*dG*dC*dT*dG*dG*dC*dA*dC*dC*dT*dC*dC*dT*dT*dG*dA; antisense) | +++ (“+++” when the suppression rate was at least 70%)
H105: ggcattggtaccaatgactg (dG*dG*dC*dA*dT*dT*dG*dG*dT*dA*dC*dC*dA*dA*dT*dG*dA*dC*dT*dG; antisense) | + (“+” when the suppression rate was at least 30%)
H107: ggcctccttgctgcaggggg (dG*dG*dC*dC*dT*dC*dC*dT*dT*dG*dC*dT*dG*dC*dA*dG*dG*dG*dG*dG; antisense) | ++ (“++” when the suppression rate was at least 50%)
H109: tcatcgcccaagtacacgtg (dT*dC*dA*dT*dC*dG*dC*dC*dC*dA*dA*dG*dT*dA*dC*dA*dC*dG*dT*dG; antisense) | ++ (“++” when the suppression rate was at least 50%)
H110: caagccctgggtccggcatg (dC*dA*dA*dG*dC*dC*dC*dT*dG*dG*dG*dT*dC*dC*dG*dG*dC*dA*dT*dG; antisense) | ++ (“++” when the suppression rate was at least 50%)
H111: acactttgtgcctgcaagca (dA*dC*dA*dC*dT*dT*dT*dG*dT*dG*dC*dC*dT*dG*dC*dA*dA*dG*dC*dA; antisense) | + (“+” when the suppression rate was at least 30%)
H114: gtgaaccccaaagacactaa (dG*dT*dG*dA*dA*dC*dC*dC*dC*dA*dA*dA*dG*dA*dC*dA*dC*dT*dA*dA; antisense) | + (“+” when the suppression rate was at least 30%)

same assay, conditions: 200 nM; chimeric 2′-methoxy antisense oligonucleotides; RD cell

Substance | suppression rate of expression, 200 nM
H076-OMe1: chimeric antisense oligonucleotide GCTGGtctccaagtcCTTCC, uppercase 2′-methoxy nucleotides, lowercase phosphorothioate nucleotides (GCTGGTCTCCAAGTCCTTCC; 2'-O-methyl at 1, 2, 3, 4, 5, 16, 17, 18, 19, 20, other sugars, backbone and T or U not given here; lowercase gap nucleotides phosphorothioate) | ++ (“++” when the suppression rate was at least 50%)
H076-OMe2: chimeric antisense oligonucleotide CTTTCtccaggctggTCTCC, uppercase 2′-methoxy nucleotides, lowercase phosphorothioate nucleotides (CTTTCTCCAGGCTGGTCTCC; 2'-O-methyl at 1, 2, 3, 4, 5, 16, 17, 18, 19, 20, other sugars, backbone and T or U not given here; lowercase gap nucleotides phosphorothioate) | +++ (“+++” when the suppression rate was at least 70%)
H077-OMe2: chimeric antisense oligonucleotide AAACAggcacaccccCATTC, uppercase 2′-methoxy nucleotides, lowercase phosphorothioate nucleotides (AAACAGGCACACCCCCATTC; 2'-O-methyl at 1, 2, 3, 4, 5, 16, 17, 18, 19, 20, other sugars, backbone and T or U not given here; lowercase gap nucleotides phosphorothioate) | + (“+” when the suppression rate was at least 30%)

Source: patent US20080292619A1, “Pharmaceutical Composition Containing Meltrin Antagonist” (MOCHIDA PHARMACEUTICAL CO., LTD., priority 2004, published 2008)
